Laboratory results published in patent publication US20070015817A1, “4-((4-(2-pyrrolidinylethoxy)phenyl)methyl)-3-(4-(trifluoromethyl)phenyl)-7-hydroxychromen-2one, pharmaceutically acceptable salts thereof and methods of use therewith” (priority 2002, published 2007).

Key:
Type in all cases: cell-based
[1] = system: BG-1 ovarian carcinoma cells; test: Inhibition of BG-1 ovarian carcinoma cell proliferation; settings: 0.1 nM 17β-estradiol-dependent growth, 72 h, 3H-thymidine incorporation
Method: BG-1 cells serve as a useful in vitro model for the evaluation of the effects of antiestrogenic compounds on ovarian tumor growth (Greenberger, L. M. et. al., Clin. Cancer Res. 7:3166-3177, 2001). Benzopyranone compounds having an IC50<100 nM are particularly useful as anti-ovarian cancer agents in vivo.
BG-1 ovarian carcinoma cells were plated in 24-well dishes at a density of 5×10^3 cells/well in phenol-red free DMEM:F-12 (1:1) medium containing 1% antibiotics, 0.05% mercaptoethanol, 0.01% ethanolamine, 0.42 ng/mL sodium selenite and 5% charcoal-stripped FCS. Illustrative benzopyranone compounds (0.1-1000 nM in 0.2% DMSO) and 0.1 nM 17β-estradiol were added to the cultured BG-1 ovarian carcinoma cells and incubated for 72 h. Subsequently, ^3H-labeled thymidine was added and its incorporation into cells was measured following 4h incubation. The results are expressed as IC50 (nM) values (Table 2) which is the concentration of the benzopyranone compound necessary to inhibit the growth of BG-1 ovarian carcinoma cells by 50% relative to controls.

[2] = system: MCF-7 breast cancer cells; test: Inhibition of MCF-7 breast cancer cell proliferation; settings: Homo sapiens, MCF7; 0.1 nM 17β-estradiol-dependent growth, 72 h, 3H-thymidine incorporation
Method: MCF-7 cells represent an excellent in vitro system to study the effects of compounds on estrogen-dependent breast cancer growth. (May, F.E.B.; Westley, B. R. J. Biol. Chem. 262:15894-15899, 1987). Benzopyranone compounds having an IC50<100 nM are particularly useful as anti-breast cancer agents in vivo.
MCF-7 breast carcinoma cells were plated in 24-well dishes at a density of 5×10^3 cells/well in phenol-red free DMEM:F-12 (1:1) medium containing 1% antibiotics, 0.05% mercaptoethanol, 0.01% ethanolamine, 0.42 ng/mL sodium selenite and 5% charcoal-stripped FCS.
Illustrative benzopyranone compounds (0.1-1000 nM in 0.2% DMSO) and 0.1 nM 17β-estradiol were added to the cultured MCF-7 breast cancer cells for 72 h. Subsequently, 3H-labeled thymidine was added and its incorporation into cells was measured following 4h incubation. The results are expressed as IC50 (nM) values (Table 2) which is the concentration of the benzopyranone compound necessary to inhibit the growth of MCF-7 breast cancer cells by 50% relative to controls.

[3] = system: IL-6 release from human U-2 OS osteosarcoma cells stably transfected with human ER-α; test: Inhibition of IL-6 release; settings: U2OS; U-2 OS cells transfected with human ER-α, stimulated with 2.5 ng/ml TNFα and 1 ng/ml IL-1, IL-6 by ELISA after 24 h, relative to vehicle
Method: Illustrative benzopyranone compounds were tested for their ability to inhibit IL-6 release from human U-2 OS osteosarcoma cells stably transfected with human ER-α. (Stein, B.; Yang, M. X. Mol. Cell. Biol 15: 4971-4979, 1995; Poli, V. et. al., EMBO J. 13:1189-1196, 1994). […] Benzopyranone compounds having an IC50<100 nM are particularly useful as bone resorption inhibitors in vivo. Accordingly, the compounds of this assay, illustrative benzopyranone compounds, are particularly useful for the treatment of osteoporosis, Paget's disease and metastatic bone cancer. These compounds are also useful as anti-cancer agents as elevated IL-6 levels are responsible for certain cancers such as multiple myeloma, prostate cancer, ovarian cancer, renal carcinoma and cervical carcinoma.
Human U-2 OS osteosarcoma cells (ATCC) were stably transfected with expression vectors for human full-length ER-α using standard molecular biology techniques. Stable subclones were generated that expressed high levels of ER-α mRNA. The expression of ER-α was confirmed using RNase protection analysis.
Cells were plated into 96-well plates at a density of 80,000 cells per well in phenol red-free media with charcoal-stripped fetal calf serum. Twenty four hours later, cells were either treated with vehicle (0.2% DMSO) or test compound (0.01 B 100 nm in 0.2% DMSO). Thirty minutes later cells were stimulated with 2.5 ng/ml TNFα and 1 ng/ml IL-1. Twenty-four hours later the media supernatant was analyzed for cytokine production (IL-6) using commercially available ELISA kits following the manufacturer=s instructions. Cytokine production in the presence of vehicle (0.2% DMSO) was set to 100%. The results are expressed as IC50 (nM) values (Table 2) which is the concentration of the benzopyranone compound necessary to inhibit the production of IL-6 50% relative to the amount of IL-6 produced in the presence of vehicle.

| IC50 [1] [nM] | IC50 [2] [nM] | IC50 [3] [nM] | SMILES |
| --- | --- | --- | --- |
| 13.6 | 13.6 | 1.5 | O=c1oc2cc(O)ccc2c(Cc2ccc(OCCN3CCCC3)cc2)c1-c1ccc(C(F)(F)F)cc1 |
| 2.3 | 3 | 0.4 | O=c1oc2cc(O)ccc2c(Cc2ccc(OCCN3CCCC3)cc2)c1-c1ccc(Cl)cc1C(F)(F)F |
| 4.65 | 4.5 | 0.5 | O=c1oc2cc(O)ccc2c(Cc2ccc(OCCN3CCCC3)cc2)c1-c1ccc(C(F)(F)F)cc1Cl |
| 5.8 | 26 | 0.4 | O=c1oc2cc(O)ccc2c(Cc2ccc(OCCN3CCCC3)cc2)c1-c1ccc(Cl)cc1 |
| 1.4 | 6.5 | 0.29 | O=c1oc2cc(O)ccc2c(Cc2ccc(OCCN3CCCC3)cc2)c1-c1ccc(Cl)cc1Cl |
| 5.5 | 26 | 1 | O=c1oc2cc(O)ccc2c(Cc2ccc(OCCN3CCCC3)cc2)c1-c1ccc(C(F)(F)F)cc1C(F)(F)F |
